Measured values taken from patent US9493455B2, “Azaindole derivatives as inhibitors of protein kinases” (ORIBASE PHARMA, priority 2012, dated 2016).

Columns and labels:
Experiment in all cases: In vitro kinase assay (Z′-LYTE)
Format in all cases: biochemical
ABL E255K = molecular target: T1, ABL E255K (Homo sapiens, UniProt P00519, E255K); settings: read-out: percent inhibition of the kinase compared to the control
T1 construct: purchased Invitrogen
Outline: (§1)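 Percent inhibition is derived from a coupled-enzyme fluorescence format in which unphosphorylated FRET peptide is preferentially proteolysed. Compounds are screened once at 100 nM (10 μM against ABL T315I) in 1% DMSO, with ATP at its apparent Km.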

ABL G250E = molecular target: T2, ABL G250E (Homo sapiens, UniProt P00519, G250E); settings: read-out: percent inhibition of the kinase compared to the control
T2 construct: purchased Invitrogen
Outline: as §1

ABL T315I = molecular target: T3, ABL T315I (Homo sapiens, UniProt P00519, T315I); settings: read-out: % of inhibition of the kinase compared to the control
T3 construct: purchased Invitrogen
Outline: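 Z′-LYTE FRET assay: kinase phosphorylation of a dual-fluorophore peptide protects it from protease cleavage, and the donor/acceptor emission ratio after 400 nm excitation tracks progress. Compounds were tested at 100 nM, or at 10 μM against ABL T315I, in 1% DMSO final, with ATP at apparent Km.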

ABL Y253F = molecular target: T4, ABL Y253F (Homo sapiens, UniProt P00519, Y253F); settings: read-out: percent inhibition of the kinase compared to the control
T4 construct: purchased Invitrogen
Outline: as §1

BLK = molecular target: T5, BLK (Homo sapiens, UniProt P51451); settings: read-out: percent inhibition of the kinase compared to the control
T5 construct: purchased Invitrogen
Outline: as §1

BMX = molecular target: T6, BMX (Homo sapiens, UniProt P51813); settings: read-out: percent inhibition of the kinase compared to the control
T6 construct: purchased Invitrogen
Outline: as §1

BTK = molecular target: T7, BTK (Homo sapiens, UniProt Q06187); settings: read-out: percent inhibition of the kinase compared to the control
T7 construct: purchased Invitrogen
Outline: as §1

CSK = molecular target: T8, CSK (Homo sapiens, UniProt P41240); settings: read-out: percent inhibition of the kinase compared to the control
T8 construct: purchased Invitrogen
Outline: as §1

EGFR (ErbB1) = molecular target: T9, EGFR (ErbB1) (Homo sapiens, UniProt P00533); settings: read-out: % of inhibition of the kinase compared to the control
T9 construct: purchased Invitrogen
Outline: as §1

EGFR (ErbB1) T790M L858R = molecular target: T10, EGFR (ErbB1) T790M L858R (Homo sapiens, UniProt P00533, L858R/T790M); settings: read-out: % of inhibition of the kinase compared to the control
T10 construct: purchased Invitrogen
Outline: as §1

EPHA1 = molecular target: T11, EPHA1 (Homo sapiens, UniProt P21709); settings: read-out: percent inhibition of the kinase compared to the control
T11 construct: purchased Invitrogen
Outline: as §1

EPHA4 = molecular target: T12, EPHA4 (Homo sapiens, UniProt P54764); settings: read-out: percent inhibition of the kinase compared to the control
T12 construct: purchased Invitrogen
Outline: as §1

EPHB2 = molecular target: T13, EPHB2 (Homo sapiens, UniProt P29323); settings: read-out: percent inhibition of the kinase compared to the control
T13 construct: purchased Invitrogen
Outline: as §1

EPHB4 = molecular target: T14, EPHB4 (Homo sapiens, UniProt P54760); settings: read-out: percent inhibition of the kinase compared to the control
T14 construct: purchased Invitrogen
T14 sequence (P54760 16-987): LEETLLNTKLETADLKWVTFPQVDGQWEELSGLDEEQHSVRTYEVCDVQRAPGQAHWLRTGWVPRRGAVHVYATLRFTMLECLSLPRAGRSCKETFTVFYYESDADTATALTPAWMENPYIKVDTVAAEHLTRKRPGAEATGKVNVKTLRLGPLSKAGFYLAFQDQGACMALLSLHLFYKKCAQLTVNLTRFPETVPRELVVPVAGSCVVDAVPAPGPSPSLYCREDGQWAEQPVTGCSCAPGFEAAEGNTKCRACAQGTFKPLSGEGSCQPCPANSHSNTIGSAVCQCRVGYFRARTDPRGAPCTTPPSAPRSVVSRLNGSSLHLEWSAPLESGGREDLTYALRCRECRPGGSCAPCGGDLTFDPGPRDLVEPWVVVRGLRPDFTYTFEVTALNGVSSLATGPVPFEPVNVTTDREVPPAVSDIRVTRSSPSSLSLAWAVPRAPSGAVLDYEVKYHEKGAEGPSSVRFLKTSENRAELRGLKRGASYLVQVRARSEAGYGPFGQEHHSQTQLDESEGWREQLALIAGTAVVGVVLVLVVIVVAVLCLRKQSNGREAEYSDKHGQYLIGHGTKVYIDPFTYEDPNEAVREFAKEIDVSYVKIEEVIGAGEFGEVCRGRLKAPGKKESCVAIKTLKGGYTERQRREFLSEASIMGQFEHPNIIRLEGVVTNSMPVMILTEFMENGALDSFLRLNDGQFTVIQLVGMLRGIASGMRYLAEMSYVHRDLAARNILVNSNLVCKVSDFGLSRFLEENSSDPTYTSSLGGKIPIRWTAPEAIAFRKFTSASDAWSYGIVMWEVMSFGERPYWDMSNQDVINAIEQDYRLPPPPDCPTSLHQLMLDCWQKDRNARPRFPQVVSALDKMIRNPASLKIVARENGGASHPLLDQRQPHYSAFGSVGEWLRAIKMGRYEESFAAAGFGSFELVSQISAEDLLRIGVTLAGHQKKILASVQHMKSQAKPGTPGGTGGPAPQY
Outline: as §1

ERBB4 = molecular target: T15, ERBB4 (Homo sapiens, UniProt Q15303); settings: read-out: percent inhibition of the kinase compared to the control
T15 construct: purchased Invitrogen
Outline: as §1

ERK2 = molecular target: T16, ERK2 (Homo sapiens, UniProt P28482); settings: read-out: percent inhibition of the kinase compared to the control
T16 construct: purchased Invitrogen
Outline: as §1

FES = molecular target: T17, FES (Homo sapiens, UniProt P07332); settings: read-out: percent inhibition of the kinase compared to the control
T17 construct: purchased Invitrogen
Outline: as §1

FGFR1 = molecular target: T18, FGFR1 (Homo sapiens, UniProt P11362); settings: read-out: % of inhibition of the kinase compared to the control
T18 construct: purchased Invitrogen
Outline: as §1

FGR = molecular target: T19, FGR (Homo sapiens, UniProt P09769); settings: read-out: percent inhibition of the kinase compared to the control
T19 construct: purchased Invitrogen
T19 sequence (P09769 whole entry): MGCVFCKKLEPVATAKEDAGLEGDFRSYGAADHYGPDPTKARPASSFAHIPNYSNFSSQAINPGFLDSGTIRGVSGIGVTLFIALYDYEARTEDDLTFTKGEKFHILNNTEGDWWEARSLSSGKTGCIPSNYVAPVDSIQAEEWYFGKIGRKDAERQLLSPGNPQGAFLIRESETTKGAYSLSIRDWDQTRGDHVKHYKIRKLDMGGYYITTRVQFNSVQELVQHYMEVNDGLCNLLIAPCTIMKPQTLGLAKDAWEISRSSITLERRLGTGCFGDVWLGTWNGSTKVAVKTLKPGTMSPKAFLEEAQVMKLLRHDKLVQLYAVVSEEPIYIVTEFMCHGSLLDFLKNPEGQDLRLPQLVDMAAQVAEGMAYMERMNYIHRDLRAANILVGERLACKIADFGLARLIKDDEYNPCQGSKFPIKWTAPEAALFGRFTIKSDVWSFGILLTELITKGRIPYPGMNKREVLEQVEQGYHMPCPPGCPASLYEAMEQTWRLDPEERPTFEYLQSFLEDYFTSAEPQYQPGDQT
Outline: as §1

FMS = molecular target: T20, FMS (Homo sapiens, UniProt P07333); settings: read-out: percent inhibition of the kinase compared to the control
T20 construct: purchased Invitrogen
Outline: as §1

FYN = molecular target: T21, FYN (Homo sapiens, UniProt P06241); settings: read-out: percent inhibition of the kinase compared to the control
T21 construct: purchased Invitrogen
Outline: as §1

HCK = molecular target: T22, HCK (Homo sapiens, UniProt P08631); settings: read-out: percent inhibition of the kinase compared to the control
T22 construct: purchased Invitrogen
Outline: as §1

HER2 = molecular target: T23, HER2 (Homo sapiens, UniProt P04626); settings: read-out: percent inhibition of the kinase compared to the control
T23 construct: purchased Invitrogen
Outline: as §1

KDR (VEGFR2) = molecular target: T24, KDR (VEGFR2) (Homo sapiens, UniProt P35968); settings: read-out: % of inhibition of the kinase compared to the control
T24 construct: purchased Invitrogen
Outline: as §1

LCK = molecular target: T25, LCK (Homo sapiens, UniProt P06239); settings: read-out: percent inhibition of the kinase compared to the control
T25 construct: purchased Invitrogen
Outline: as §1

PDGFRA (PDGFR alpha) = molecular target: T26, PDGFRA (PDGFR alpha) (Homo sapiens, UniProt P16234); settings: read-out: % of inhibition of the kinase compared to the control
T26 construct: purchased Invitrogen
T26 sequence (P16234 24-1089): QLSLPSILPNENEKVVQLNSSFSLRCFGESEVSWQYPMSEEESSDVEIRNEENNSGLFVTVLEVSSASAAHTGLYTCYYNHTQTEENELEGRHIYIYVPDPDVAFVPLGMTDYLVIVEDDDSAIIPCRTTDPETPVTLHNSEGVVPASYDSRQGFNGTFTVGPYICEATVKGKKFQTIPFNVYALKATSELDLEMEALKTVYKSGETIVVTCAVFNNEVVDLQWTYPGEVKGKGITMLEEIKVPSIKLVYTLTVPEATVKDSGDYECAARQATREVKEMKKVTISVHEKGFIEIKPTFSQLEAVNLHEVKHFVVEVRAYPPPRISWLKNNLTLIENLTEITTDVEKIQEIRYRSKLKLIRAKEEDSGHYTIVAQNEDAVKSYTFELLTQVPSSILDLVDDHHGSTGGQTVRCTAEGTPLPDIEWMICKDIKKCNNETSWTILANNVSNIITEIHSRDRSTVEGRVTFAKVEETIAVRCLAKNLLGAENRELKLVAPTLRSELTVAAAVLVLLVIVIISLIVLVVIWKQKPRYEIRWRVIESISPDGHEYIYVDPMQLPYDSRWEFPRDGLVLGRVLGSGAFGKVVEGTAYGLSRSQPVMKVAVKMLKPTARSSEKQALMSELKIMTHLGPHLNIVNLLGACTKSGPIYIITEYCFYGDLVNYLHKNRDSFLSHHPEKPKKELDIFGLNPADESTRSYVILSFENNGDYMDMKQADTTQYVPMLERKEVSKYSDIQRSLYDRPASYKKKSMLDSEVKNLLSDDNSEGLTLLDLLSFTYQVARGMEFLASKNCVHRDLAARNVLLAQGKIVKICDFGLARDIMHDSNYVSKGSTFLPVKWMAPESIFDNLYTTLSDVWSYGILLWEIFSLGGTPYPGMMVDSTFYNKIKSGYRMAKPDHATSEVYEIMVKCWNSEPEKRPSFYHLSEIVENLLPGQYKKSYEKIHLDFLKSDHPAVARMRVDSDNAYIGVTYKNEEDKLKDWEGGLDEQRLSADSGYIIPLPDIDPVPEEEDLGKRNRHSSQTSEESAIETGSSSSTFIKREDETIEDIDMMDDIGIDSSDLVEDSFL
Outline: as §1

PKC theta = molecular target: T27, PKC theta (Homo sapiens, UniProt Q04759); settings: read-out: percent inhibition of the kinase compared to the control
T27 construct: purchased Invitrogen
Outline: as §1

RET = molecular target: T28, RET (Homo sapiens, UniProt P07949); settings: read-out: percent inhibition of the kinase compared to the control
T28 construct: purchased Invitrogen
T28 sequence (P07949 29-1114): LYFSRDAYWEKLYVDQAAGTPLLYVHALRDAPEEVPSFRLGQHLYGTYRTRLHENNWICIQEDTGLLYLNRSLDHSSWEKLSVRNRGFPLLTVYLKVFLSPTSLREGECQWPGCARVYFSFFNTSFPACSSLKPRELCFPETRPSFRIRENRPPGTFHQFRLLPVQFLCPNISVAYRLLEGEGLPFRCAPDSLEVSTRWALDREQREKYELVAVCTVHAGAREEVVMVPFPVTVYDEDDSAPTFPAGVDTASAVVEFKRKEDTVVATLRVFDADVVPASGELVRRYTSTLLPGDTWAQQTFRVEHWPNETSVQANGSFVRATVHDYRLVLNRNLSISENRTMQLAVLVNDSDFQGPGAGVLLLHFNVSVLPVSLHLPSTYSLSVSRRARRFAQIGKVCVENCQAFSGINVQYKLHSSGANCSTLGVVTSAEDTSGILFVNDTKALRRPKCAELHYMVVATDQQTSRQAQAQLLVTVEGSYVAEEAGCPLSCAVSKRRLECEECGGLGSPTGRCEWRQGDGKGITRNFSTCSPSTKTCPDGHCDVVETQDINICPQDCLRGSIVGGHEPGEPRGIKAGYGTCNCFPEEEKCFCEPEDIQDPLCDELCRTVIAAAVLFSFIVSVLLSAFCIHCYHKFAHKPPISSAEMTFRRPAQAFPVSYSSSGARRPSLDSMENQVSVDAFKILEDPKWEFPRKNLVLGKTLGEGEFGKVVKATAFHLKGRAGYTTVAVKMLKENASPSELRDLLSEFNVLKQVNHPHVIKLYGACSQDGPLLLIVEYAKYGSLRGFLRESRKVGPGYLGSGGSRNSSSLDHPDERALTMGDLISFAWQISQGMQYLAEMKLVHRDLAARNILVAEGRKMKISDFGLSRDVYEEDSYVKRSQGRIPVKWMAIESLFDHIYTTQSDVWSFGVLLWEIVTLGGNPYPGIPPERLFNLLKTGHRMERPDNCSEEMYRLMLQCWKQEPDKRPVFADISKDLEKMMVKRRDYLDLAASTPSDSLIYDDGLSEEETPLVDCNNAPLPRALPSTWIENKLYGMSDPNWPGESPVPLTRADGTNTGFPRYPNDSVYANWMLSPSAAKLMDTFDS
Outline: as §1

SRC = molecular target: T29, SRC (Homo sapiens, UniProt P12931); settings: read-out: % of inhibition of the kinase compared to the control
T29 construct: purchased Invitrogen
Outline: as §1

VEGFR1 = molecular target: T30, VEGFR1 (Homo sapiens, UniProt P17948); settings: read-out: % of inhibition of the kinase compared to the control
T30 construct: purchased Invitrogen
T30 sequence (P17948 27-1338): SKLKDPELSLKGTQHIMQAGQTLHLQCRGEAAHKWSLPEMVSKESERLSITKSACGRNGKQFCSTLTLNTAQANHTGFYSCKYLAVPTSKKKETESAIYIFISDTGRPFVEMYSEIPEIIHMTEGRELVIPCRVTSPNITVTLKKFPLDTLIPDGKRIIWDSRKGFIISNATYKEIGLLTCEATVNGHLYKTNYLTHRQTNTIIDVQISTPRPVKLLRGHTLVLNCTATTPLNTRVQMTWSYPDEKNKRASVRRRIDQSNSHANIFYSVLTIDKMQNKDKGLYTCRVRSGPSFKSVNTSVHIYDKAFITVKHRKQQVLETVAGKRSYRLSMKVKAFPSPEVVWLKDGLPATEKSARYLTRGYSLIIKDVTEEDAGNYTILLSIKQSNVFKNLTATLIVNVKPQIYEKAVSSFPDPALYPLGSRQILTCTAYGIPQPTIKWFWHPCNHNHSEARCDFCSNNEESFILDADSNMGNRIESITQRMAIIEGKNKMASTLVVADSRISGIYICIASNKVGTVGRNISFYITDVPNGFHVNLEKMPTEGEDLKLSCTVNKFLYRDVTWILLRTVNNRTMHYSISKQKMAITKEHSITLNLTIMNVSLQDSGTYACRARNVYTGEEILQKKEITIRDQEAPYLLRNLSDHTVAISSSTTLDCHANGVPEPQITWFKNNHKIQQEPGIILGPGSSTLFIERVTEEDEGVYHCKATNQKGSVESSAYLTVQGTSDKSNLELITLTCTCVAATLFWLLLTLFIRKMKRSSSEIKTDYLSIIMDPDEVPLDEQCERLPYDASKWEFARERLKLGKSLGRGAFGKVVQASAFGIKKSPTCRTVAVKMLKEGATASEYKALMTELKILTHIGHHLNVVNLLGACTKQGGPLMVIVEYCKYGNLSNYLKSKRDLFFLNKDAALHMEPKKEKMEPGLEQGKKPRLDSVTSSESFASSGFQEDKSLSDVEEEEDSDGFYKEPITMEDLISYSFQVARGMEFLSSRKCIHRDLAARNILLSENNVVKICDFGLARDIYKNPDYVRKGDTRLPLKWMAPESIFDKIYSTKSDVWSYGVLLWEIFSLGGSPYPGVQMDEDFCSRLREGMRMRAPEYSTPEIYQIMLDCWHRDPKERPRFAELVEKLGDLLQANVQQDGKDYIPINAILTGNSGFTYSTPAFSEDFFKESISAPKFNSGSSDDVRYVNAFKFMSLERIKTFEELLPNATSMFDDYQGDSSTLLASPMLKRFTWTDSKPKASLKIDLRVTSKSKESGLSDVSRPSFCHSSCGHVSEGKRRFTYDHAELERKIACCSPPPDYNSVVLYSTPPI
Outline: as §1

VEGFR3 = molecular target: T31, VEGFR3 (Homo sapiens, UniProt P35916); settings: read-out: percent inhibition of the kinase compared to the control
T31 construct: purchased Invitrogen
Outline: as §1

YES = molecular target: T32, YES (Homo sapiens, UniProt P07947); settings: read-out: percent inhibition of the kinase compared to the control
T32 construct: purchased Invitrogen
Outline: as §1

COC(=O)c1cc2cc(NCc3cc(NC(=O)c4ccc(CN5CCN(C)CC5)c(C(F)(F)F)c4)ccc3C)cnc2[nH]1 [OR0512]
> 50%: inhibition at 0.1 µM (ABL E255K) | inhibition at 0.1 µM (ABL G250E) | inhibition at 0.1 µM (ABL Y253F) | inhibition at 0.1 µM (BLK) | inhibition at 0.1 µM (BMX) | inhibition at 0.1 µM (BTK) | inhibition at 0.1 µM (CSK) | inhibition at 0.1 µM (EPHA1) | inhibition at 0.1 µM (EPHA4) | inhibition at 0.1 µM (EPHB2) | inhibition at 0.1 µM (EPHB4) | inhibition at 0.1 µM (ERBB4) | inhibition at 0.1 µM (ERK2) | inhibition at 0.1 µM (FES) | inhibition at 0.1 µM (FGR) | inhibition at 0.1 µM (FMS) | inhibition at 0.1 µM (FYN) | inhibition at 0.1 µM (HCK) | inhibition at 0.1 µM (HER2) | inhibition at 0.1 µM (LCK) | inhibition at 0.1 µM (PKC theta) | inhibition at 0.1 µM (RET) | inhibition at 0.1 µM (VEGFR3) | inhibition at 0.1 µM (YES)
≥ 50%: inhibition at 10 µM (ABL T315I) | inhibition at 0.1 µM (EGFR (ErbB1)) | inhibition at 0.1 µM (FGFR1) | inhibition at 0.1 µM (KDR (VEGFR2)) | inhibition at 0.1 µM (PDGFRA (PDGFR alpha)) | inhibition at 0.1 µM (SRC)
< 50%: inhibition at 0.1 µM (EGFR (ErbB1) T790M L858R) | inhibition at 0.1 µM (VEGFR1)
